In patent US4332806A, “Antitumor and immunosuppresive 4-carbamoyl imidazolium-5-olate derivatives, pharmaceutical composition and production thereof” (Sumitomo Chemical Company, Limited, priority 1979, dated 1982):

How the values were obtained:
[1] = system: Lewis lung carcinoma; experiment: Antitumor effect on experimental tumors in mice, Lewis lung carcinoma (solid), tumor inhibitory ratio; assay type: in vivo, BDF1 male mice; conditions: 100 mg/kg, i.p., schedule 5q2d (day 1, 3, 5, 7 and 9), tumors weighed at day 13
Experimental: The antitumor activities of the compounds of the present invention were estimated according to the methods described in "Cancer chemotherapy reports" Part 3, Vol. 3, (No. 2) p. 13 (1972).
For determining antitumor activities, BDF1 male mice, 5 weeks old, weighing between 18 and 22 grams were used. Each test group was composed of 6 to 7 mice. Two million cells of Lewis Lung Carcinoma were injected in the hind leg. The drug was administered intraperitoneally at day 1, 3, 5, 7 and 9 (or 5q2d).
After killing the mice at day 13, tumors were removed and weighed. The tumor inhibitory ratio was calculated according to the following formula. [formula]

[2] = Acute toxicities (LD50); conditions: mouse, in vivo, ip; ICR male mice, 5 weeks old, intraperitoneal
Experimental: For determining acute toxicities ICR male mice, 5 weeks old, were used. The drug was administered intraperitoneally.

[3] = Japanese Patent Publication (Kokai) No. 53-5162; cited from earlier work
[4] = system: tumors; conditions: Japanese Patent Publication (Kokai) No. 53-5162; cited from earlier work

Structure (SMILES)	Inhibition Ratio, Lewis lung carcinoma (solid) [1]	LD50 [2]	immunosuppressive activity, known (in words) [3]	antitumor activity, known (in words) [4]
CC12CC3(C)CC(C)(C1)CC(C(=O)Oc1nc[nH]c1C(N)=O)(C2)C3 [5-carbamoyl-1H-imidazole-4-yl 3',5',7'-trimethyladamantane-1'-carboxylate]	90%	670 to 1000 mg/kg		
NC(=O)c1[nH]cnc1OC(=O)C12CC3CC(CC(Br)(C3)C1)C2 [5-carbamoyl-1H-imidazole-4-yl 3'-bromoadamantane-1'-carboxylate]	66.2%	670 to 1000 mg/kg		
NC(=O)c1[nH]cnc1OC(=O)C12CC3CC(CC(Cl)(C3)C1)C2 [5-carbamoyl-1H-imidazole-4-yl 3'-chloroadamantane-1'-carboxylate]	71.1%	> 1000 mg/kg		
NC(=O)c1[nH]cnc1OC(=O)C12CC3CC(CC(F)(C3)C1)C2 [5-carbamoyl-1H-imidazole-4-yl 3'-fluoroadamantane-1'-carboxylate]	65%	670 to 1000 mg/kg		
NC(=O)c1[nH]cnc1OC(=O)C12CC3CC(C1)CC(c1ccccc1)(C3)C2 [5-carbamoyl-1H-imidazole-4-yl 3'-phenyladamantane-1'-carboxylate]	85.7%			
NC(=O)c1[nH]cnc1OC(=O)C12CC3CC(CC(C3)C1)C2 [Compound (IV), 5-Carbamoyl-1H-imidazole-4-yl adamantane-1'-carboxylate]		250 to 297 mg/kg	immunosuppressive activity	antitumor and immunosuppressive activity
